Laboratory results from US20250154149A1, “PHARMACEUTICAL COMPOSITION AND METHOD FOR PREPARING ACTIVE INGREDIENT COMPOUND THEREOF” (Betta Pharmaceuticals Co., Ltd., priority 2022, published 2025).

What was measured:
[1] = Hygroscopicity test (DVS); type: physicochemical
[2] = Physicochemical stability test of the crystal form A; settings: influencing factors (40° C., 60° C., 92.5% RH, 75% RH, 4500Lx), accelerated test, long-term test
Experimental: Referring to the requirements of “9001 Guidelines for Stability Test of APIs and Pharmaceutical Preparations” in the Chinese Pharmacopoeia, the stability test was conducted on the crystal form A of the compound represented by Formula I, and the specific test conditions are shown in Table 10.

[3] = Pressure stability of the crystal form A; type: physicochemical; settings: pressure conditions of 150 kg and 230 kg
[4] = system: NCI-H226 (NF2 expression-deficient) human lung squamous cell carcinoma xenograft; assay: In vivo efficacy in subcutaneous NCI-H226 xenograft model; settings: QD, oral, day 45, NCI-H226 xenograft in BALB/c nude mice
Experimental: In vivo pharmacodynamics and efficacy studies of the compound represented by Formula I were performed in a subcutaneous NCI-H226 (NF2 expression-deficient) human lung squamous cell carcinoma xenograft model in BALB/c nude mice.
BALB/c nude female mice (6 weeks to 7 weeks) were inoculated subcutaneously with 1×10^7 NCI-H226 tumor cells on the right side of each. The inoculated cells were resuspended in a mixture solution of 0.1 mL of PBS and matrix gel Matrigel (PBS: Matrigel=1:1). Administration treatment was started in groups when the average tumor size reached about 100 mm^3 to 200 mm^3. From the date of grouping, the mice were orally administered the crystal form A of the compound represented by Formula I (solvent: 10% DMSO+10% Solutol (KollipHor HS15)+80% physiological saline) once a day for a total of 45 days (QD×45 days). Animals were regularly monitored for changes in body weight as an indicator of compound safety. Tumors were measured twice weekly using a caliper, and the volume was expressed in mm^3 using the formula “V=(L×W^2)/2”, where V is the tumor volume, L is the length of the tumor (the longest tumor dimension) and W is the width of the tumor (the longest tumor dimension perpendicular to L). Compound inhibitory activity was assessed by tumor growth inhibition TGI (%). […]

[5] = Pharmacokinetics in plasma of mice after oral administration; type: in vivo; settings: female, BALB/c, mouse, oral (gavage, clear solution), single dose 5 mg/kg
Experimental: Adult BALB/c female mice (6 weeks to 7 weeks) were received a single administration of the compound represented by Formula I containing 10% to 20% DMSO, 10% Solutol (KollipHor HS15) and 80% to 70% physiological saline as excipient. Mice (n=3) were administered orally (gavage, clear solution) at a dose of 5 mg/kg. Blood was collected after oral administration at the following points of time: 15 min, 30 min, 1 h, 2 h, 4 b, 7 h, and 24 h. About 0.1 mL of whole blood was collected from the retro-orbital venous plexus and placed in a test tube containing EDTA anticoagulant. Samples were centrifuged at 4° C. and 4000 rpm for 10 min. Plasma was transferred to a centrifugal tube and stored at −20° C. before analysis. The concentration of test compound in plasma samples was analyzed by liquid chromatography-tandem mass spectrometry (LC-MS/MS). Plasma concentration-time data from individual animals were analyzed using software Sciex Analyst. A non-compartmental model was introduced in the concentration analysis, and pharmacokinetic parameters of the test compound were calculated using software WinNonlin (version 4.1; pHarsight).

[6] = system: YAP/TAZ-TEAD transcription complex; assay: CTGF detection (ELISA method) in NCI-H2052 cells; type: cell-based, human; settings: NCI-H2052 cells (NF2 mutation), 24 hours incubation, CTGF in culture supernatant by ELISA; read-out: EC50 value (CTGF concentration response curve)
Experimental: The detection of CTGF expression level may assess the activity of the YAP/TAZ-TEAD transcription complex. CTGF expression level was quantitatively detected using a human SimpleStep ELISA® kit (Abcam, ab261851).
NCI-H2052 cells (purchased from ATCC, NF2 mutation) were cultured in RPMI 1640 complete medium (containing 10% FBS, 1% penicillin-streptomycin solution and I mM sodium pyruvate). The day before compound treatment, cultured cells were washed with PBS, digested with trypsin, and then collected by centrifugation. The supernatant was removed, and the cells were resuspended in fresh complete medium. Cells were counted and inoculated in 96-well plates at a density of 6500 cells/well. […]
The Human CTGF ELISA Kit uses an affinity labeled capture antibody and a reporter gene coupled detection antibody to immunocapture the sample analytes in the solution. […] 50 μL of standard or cell supernatant sample to be detected were added to the wells of the detection plate. […] Finally, the OD value at 450 nm of each well was read on a multifunctional microplate reader. The concentrations of the target CTGF protein in the samples were determined by standard curve.
The inhibitory activity of the compound of the present application on the transcription regulatory function of TEAD-YAP/TAZ was assessed by the CTGF concentration response curve of the compound. […]

NCI-H226 cells = assay: Cell proliferation inhibitory activity detection (CTG detection); type: cell-based; settings: Homo sapiens; NCI-H226 cells (NF2 expression-deficient), 144 h, CellTiter-Glo; read-out: IC50 value (inhibition of cell proliferation)
Experimental: The inhibition of the compound on cell proliferation was detected using CellTiter-Glo® Luminescent Cell Viability Assay Kit (Promega Company). NCI-H226 cells (purchased from ATCC, NF2 expression-deficient) were cultured in RPMI 1640 complete medium (containing 10% FBS, 1% penicillin-streptomycin solution and 1 mM sodium pyruvate). • a) The day before compound treatment, cultured cells were washed with PBS, digested with trypsin, and then collected by centrifugation. The supernatant was removed and the cells were resuspended in fresh RPMI 1640 complete medium. […] Finally, the luminescence signal value (RLU) of each well was read on a multifunctional microplate reader PE En Vision®.
Inhibition rate (IR) of the detected compound: IR (%)=(1−(RLU compound−RLU blank control)/(RLU solvent control−RLU blank control))*100%. The inhibition rates of the compounds at different concentrations were calculated in Excel, then software GraphPad Prism was used to generate inhibition curves, and the relevant parameters were calculated, including the minimum inhibition rate Bottom. the maximum inhibition rate Top and IC50. […]

| Crystal form after the DVS test (XRPD) ([1]; after DVS test, XRPD detection) | Hygroscopicity (DVS) ([1]; dynamic vapor sorption analyzer) | Change in crystal form, characteristics and content compared with day 0 [2] | Crystal form after pressing [3] | AUC(0-t) [5] [ng·h/mL] | Cmax [5] [ng/mL] | EC50 [6] [nM] | IC50 (NCI-H226 cells) [nM] | Structure (SMILES) | TGI (%) ([4]; 10 mg/kg) | TGI (%) ([4]; 50 mg/kg) |
| --- | --- | --- | --- | --- | --- | --- | --- | --- | --- | --- |
| no change in the crystal form | no hygroscopicity | no significant change | the crystal form was not changed |  |  |  |  | C=C(F)C(=O)N1CC(n2c(=O)n(-c3ccc(C(F)(F)F)cc3)c3nccnc32)C1 [1-[1-(2-fluoroacryloyl)azetidin-3-yl]-3-(4-trifluoromethylphenyl)-1,3-dihydro-2H-imidazo[4,5-b]pyrazin-2-one] | 109 | 111 |
|  |  |  |  | 17200 | 1970 | 2 | 7 | C=C(F)C(=O)N1CC(n2c(=O)n(-c3ccc(C(F)(F)F)cc3)c3nccnc32)C1 [compound represented by Formula I, 1-[1-(2-fluoroacryloyl)azetidin-3-yl]-3-(4-trifluoromethylphenyl)-1,3-dihydro-2H-imidazo[4,5-b]pyrazin-2-one] |  |  |
